Measured values as given in PMC12363342, “Investigating the N-terminal linker histone H1 subtypes as substrates for JmjC lysine demethylases” (RSC Chemical Biology, 2025).
Square brackets hold non-standard residues; d marks the D form. Ends that are not written are not given here. Lys(Me3) = C[N+](C)(C)CCCC[C@H](N)C(=O)O

How the values were obtained:
KDM3A = assay: LC-MS demethylation activity assay, KDM3A; format: biochemical, human; details: 2 μM KDM, 10 μM H1/H3 peptide, 10 μM FAS, 100 μM LAA, 20 μM 2OG, 50 mM HEPES pH 7.5, 2 h, room temperature, T (tri-) initial methylation state
Outline: (§1)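 H1 isoform peptides (10 μM) were incubated 2 h at room temperature with 2 μM recombinant N-terminally His6-tagged catalytic domains in 50 mM HEPES pH 7.5 containing FAS (10 μM), ascorbate (100 μM) and 2OG (20 μM). Reactions were quenched with formic acid (1% final), and demethylation was analysed by LC-MS (Q-TOF).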

KDM6B = assay: LC-MS demethylation activity assay, KDM6B; format: biochemical, human; details: 2 μM KDM, 10 μM H1/H3 peptide, 10 μM FAS, 100 μM LAA, 20 μM 2OG, 50 mM HEPES pH 7.5, 2 h, room temperature, T (tri-) initial methylation state
Outline: as §1

KDM5D = assay: LC-MS demethylation activity assay, KDM5D; format: biochemical, human; details: 2 μM KDM, 10 μM H1/H3 peptide, 10 μM FAS, 100 μM LAA, 20 μM 2OG, 50 mM HEPES pH 7.5, 2 h, room temperature, T (tri-) initial methylation state
Outline: (§2)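 His6-tagged recombinant catalytic domains (2.0 μM) were used: KDM4A M1–L359, KDM4D M1–L359 and KDM3C L2157–L2500 from E. coli, and KDM5D M1–D775 from Sf9. Each acted on 10 μM H1 peptide in 50 mM HEPES pH 7.5 with 10 μM Fe(II), 100 μM ascorbate and 20 μM 2OG for 2 h at room temperature. Reactions were formic acid-quenched and analysed by LC-MS.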

KDM3C = assay: LC-MS demethylation activity assay, KDM3C; format: biochemical, human; details: 2 μM KDM, 10 μM H1/H3 peptide, 10 μM FAS, 100 μM LAA, 20 μM 2OG, 50 mM HEPES pH 7.5, 2 h, room temperature, T (tri-) initial methylation state
Outline: as §2

KDM4E = molecular target: T1, KDM4E (Homo sapiens, UniProt B2RXH2); assay: LC-MS demethylation activity assay, KDM4E; format: biochemical; details: room temperature; for substrate conversion (demethylation) by KDM4E / di-methylated product formed by KDM4E / mono-methylated product formed by KDM4E: 2 μM KDM4E, 10 μM peptide; for substrate conversion (demethylation) by KDM4E / KDM4E demethylation activity, T: 10 μM FAS, 100 μM LAA, 20 μM 2OG; for substrate conversion (demethylation) by KDM4E: HEPES pH 7.5, 2 h; for di-methylated product formed by KDM4E / mono-methylated product formed by KDM4E: standard conditions, 2 h; for KDM4E demethylation activity, T: 2 μM KDM, 10 μM H1/H3 peptide, 50 mM HEPES pH 7.5, 2 h, T (tri-) initial methylation state
T1 construct: KDM4DM1-L359,[39]; KDM4EM1-R336,[30]; His6 (N); made in house; host or cells: Escherichia coli
T1 sequence (B2RXH2 1-336): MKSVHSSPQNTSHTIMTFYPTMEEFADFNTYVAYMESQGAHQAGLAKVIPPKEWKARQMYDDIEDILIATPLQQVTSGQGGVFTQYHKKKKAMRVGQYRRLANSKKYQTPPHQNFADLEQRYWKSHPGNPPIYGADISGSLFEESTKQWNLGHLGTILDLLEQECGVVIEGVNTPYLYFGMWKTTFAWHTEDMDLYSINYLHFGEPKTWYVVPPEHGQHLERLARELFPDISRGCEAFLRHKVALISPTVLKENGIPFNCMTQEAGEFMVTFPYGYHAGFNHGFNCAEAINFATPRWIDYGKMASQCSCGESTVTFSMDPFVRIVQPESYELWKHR
Outline: as §1

| Substance | KDM3A demethylation activity, T (KDM3A) | KDM6B demethylation activity, T (KDM6B) | KDM5D demethylation activity, T (KDM5D) | KDM3C demethylation activity, T (KDM3C) | substrate conversion (demethylation) by KDM4E (KDM4E) | di-methylated product formed by KDM4E (KDM4E) | mono-methylated product formed by KDM4E (KDM4E) | KDM4E demethylation activity, T (KDM4E) |
| --- | --- | --- | --- | --- | --- | --- | --- | --- |
| KKKAA[Lys(Me3)]KAGGTPRKA [Peptide H1.2K25me3, 15-mer linker histone H1.2 residues 20-34 peptide, tri-methylated K25] | ● [red] | ● [red] | ● [red] | ● [red] | ~80% | ~50% | ~30% | ● [red] |
| KKKA[Lys(Me3)]KAGATAGKRK [Peptide H1.3K24me3, 15-mer linker histone H1.3 residues 20-34 peptide, tri-methylated K24] | ● [red] | ● [red] | ● [red] | ● [red] | ~80% | ~42% | ~38% | ● [green] (green dots indicate good demethylation (>50% conversion)) |
| KKKAR[Lys(Me3)]SAGAAKRKA [Peptide H1.4K25me3, 15-mer linker histone H1.4 residues 20-34 peptide, tri-methylated K25] | ● [red] | ● [red] | ● [red] | ● [red] | ~95% | ~28% | ~67% | ● [red] |
| KKKAAK[Lys(Me3)]AGGTPRKA [Peptide H1.2K26me3, 15-mer linker histone H1.2 residues 20-34 peptide, tri-methylated K26] | ● [red] | ● [red] | ● [red] | ● [red] | ~80% | ~50% | ~30% | ● [green] (green dots indicate good demethylation (>50% conversion)) |
| KKKATK[Lys(Me3)]AAGAGAAK [Peptide H1.5K26me3, 15-mer linker histone H1.5 residues 20-34 peptide, tri-methylated K26] | ● [red] | ● [red] | ● [red] | ● [red] | – | ~40% | ~16% | ● [green] (green dots indicate good demethylation (>50% conversion)) |
